These compounds were tested on barnyard grass (assay: Test Example 3: herbicidal effect by foliage application, Wagner pot (Table 18, symbol H)). Conditions: amount of applied herbicide 320 g/ha.
Assay type: in vivo, barnyard grass (Echinochloa crus-galli)
Summary of the method: (§1)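 Plants were sown in alluvial soil held under 0.1–0.5 cm standing water and grown 14 days in a greenhouse at 25–30 °C. An emulsifiable formulation, water-diluted to the set dose, was then sprayed onto the foliage, and effects were scored three weeks later using previously defined criteria.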
In the case of COc1ccc(-c2sc3ccc(F)cc3c2-c2c(O)c(C)nn(C)c2=O)c(F)c1 [2-364], the “herbicidal effect on H: barnyard grass” value is reported as 4 (Herbicidal rate of 70% or more and less than 90%).
For CCCC(=O)Oc1c(C)nn(C)c(=O)c1-c1c(-c2ccc(OC)cc2F)sc2ccc(F)cc12 [2-365], the “herbicidal effect on H: barnyard grass” value was 4 (Herbicidal rate of 70% or more and less than 90%).

Each compound was assayed on Chinese sprangletop (assay: Test Example 3: herbicidal effect by foliage application, Wagner pot (Table 18, symbol D)). Conditions: amount of applied herbicide 320 g/ha.
Assay type: in vivo, chinese sprangletop (Leptochloa chinensis)
Summary of the method: as §1
For COc1ccc(-c2sc3ccc(F)cc3c2-c2c(O)c(C)nn(C)c2=O)c(F)c1 [2-364], the “herbicidal effect on D: Chinese sprangletop” value was 4 (Herbicidal rate of 70% or more and less than 90%).
In the case of CCCC(=O)Oc1c(C)nn(C)c(=O)c1-c1c(-c2ccc(OC)cc2F)sc2ccc(F)cc12 [2-365], the “herbicidal effect on D: Chinese sprangletop” value is reported as 5 (Herbicidal rate of 90% or more (almost completely withered)).

These compounds were tested on rice flat sedge (assay: Test Example 3: herbicidal effect by foliage application, Wagner pot (Table 18, symbol E)). Conditions: amount of applied herbicide 320 g/ha.
Assay type: in vivo, rice flat sedge (Cyperus iria)
Summary of the method: as §1
COc1ccc(-c2sc3ccc(F)cc3c2-c2c(O)c(C)nn(C)c2=O)c(F)c1 [2-364] was tested, and the “herbicidal effect on E: rice flat sedge” value was 5 (Herbicidal rate of 90% or more (almost completely withered)).
With CCCC(=O)Oc1c(C)nn(C)c(=O)c1-c1c(-c2ccc(OC)cc2F)sc2ccc(F)cc12 [2-365] the “herbicidal effect on E: rice flat sedge” value was 5 (Herbicidal rate of 90% or more (almost completely withered)).

Each compound was assayed on southern crabgrass (assay: Test Example 4: herbicidal effect by soil treatment (Table 19, symbol F)). Conditions: amount of applied herbicide 320 g/ha.
Assay type: in vivo, southern crabgrass (Digitaria ciliaris)
Summary of the method: (§2)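 Seeds were sown in sterilized diluvial soil and covered with about 1.5 cm of soil. An emulsion formulation diluted with water to a predetermined herbicide amount was sprayed evenly onto the soil surface. Plants grew in a greenhouse at 25° C. to 30° C., and the effect was scored three weeks after application using criteria from an earlier test.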
For COc1ccc(-c2sc3ccc(F)cc3c2-c2c(O)c(C)nn(C)c2=O)c(F)c1 [2-364], the “herbicidal effect, F: southern crabgrass” value was 0 (Herbicidal rate of 5% or less (almost no effect)).
For CCCC(=O)Oc1c(C)nn(C)c(=O)c1-c1c(-c2ccc(OC)cc2F)sc2ccc(F)cc12 [2-365], the “herbicidal effect, F: southern crabgrass” value was 0 (Herbicidal rate of 5% or less (almost no effect)).

Each compound was assayed on green foxtail (assay: Test Example 4: herbicidal effect by soil treatment (Table 19, symbol G)). Conditions: amount of applied herbicide 320 g/ha.
Assay type: in vivo, green foxtail (Setaria viridis)
Summary of the method: as §2
COc1ccc(-c2sc3ccc(F)cc3c2-c2c(O)c(C)nn(C)c2=O)c(F)c1 [2-364] was tested, and the “herbicidal effect, G: green foxtail” value was 0 (Herbicidal rate of 5% or less (almost no effect)).
CCCC(=O)Oc1c(C)nn(C)c(=O)c1-c1c(-c2ccc(OC)cc2F)sc2ccc(F)cc12 [2-365] was tested, and the “herbicidal effect, G: green foxtail” value was 0 (Herbicidal rate of 5% or less (almost no effect)).

Each compound was assayed on barnyard grass (assay: Test Example 4: herbicidal effect by soil treatment (Table 19, symbol H)). Conditions: amount of applied herbicide 320 g/ha.
Assay type: in vivo, barnyard grass (Echinochloa crus-galli)
Summary of the method: as §2
For COc1ccc(-c2sc3ccc(F)cc3c2-c2c(O)c(C)nn(C)c2=O)c(F)c1 [2-364], the “herbicidal effect, H: barnyard grass” value was 0 (Herbicidal rate of 5% or less (almost no effect)).
For CCCC(=O)Oc1c(C)nn(C)c(=O)c1-c1c(-c2ccc(OC)cc2F)sc2ccc(F)cc12 [2-365], the “herbicidal effect, H: barnyard grass” value was 0 (Herbicidal rate of 5% or less (almost no effect)).

Each compound was assayed on wild oat (assay: Test Example 4: herbicidal effect by soil treatment (Table 19, symbol I)). Conditions: amount of applied herbicide 320 g/ha.
Assay type: in vivo, wild oat (Avena fatua)
Summary of the method: as §2
With COc1ccc(-c2sc3ccc(F)cc3c2-c2c(O)c(C)nn(C)c2=O)c(F)c1 [2-364] the “herbicidal effect, I: wild oat” value was 0 (Herbicidal rate of 5% or less (almost no effect)).
In the case of CCCC(=O)Oc1c(C)nn(C)c(=O)c1-c1c(-c2ccc(OC)cc2F)sc2ccc(F)cc12 [2-365], the “herbicidal effect, I: wild oat” value is reported as 0 (Herbicidal rate of 5% or less (almost no effect)).

These compounds were tested on blackgrass (assay: Test Example 4: herbicidal effect by soil treatment (Table 19, symbol J)). Conditions: amount of applied herbicide 320 g/ha.
Assay type: in vivo, blackgrass (Alopecurus myosuroides)
Summary of the method: as §2
With COc1ccc(-c2sc3ccc(F)cc3c2-c2c(O)c(C)nn(C)c2=O)c(F)c1 [2-364] the “herbicidal effect, J: blackgrass” value was 0 (Herbicidal rate of 5% or less (almost no effect)).
CCCC(=O)Oc1c(C)nn(C)c(=O)c1-c1c(-c2ccc(OC)cc2F)sc2ccc(F)cc12 [2-365] was tested, and the “herbicidal effect, J: blackgrass” value was 0 (Herbicidal rate of 5% or less (almost no effect)).

What follows are compounds tested on Italian ryegrass (assay: Test Example 4: herbicidal effect by soil treatment (Table 19, symbol K)). Conditions: amount of applied herbicide 320 g/ha.
Assay type: in vivo, Italian ryegrass (Lolium multiflorum)
Summary of the method: as §2
In the case of COc1ccc(-c2sc3ccc(F)cc3c2-c2c(O)c(C)nn(C)c2=O)c(F)c1 [2-364], the “herbicidal effect, K: Italian ryegrass” value is reported as 0 (Herbicidal rate of 5% or less (almost no effect)).
CCCC(=O)Oc1c(C)nn(C)c(=O)c1-c1c(-c2ccc(OC)cc2F)sc2ccc(F)cc12 [2-365] was tested, and the “herbicidal effect, K: Italian ryegrass” value was 0 (Herbicidal rate of 5% or less (almost no effect)).

What follows are compounds tested on windgrass (assay: Test Example 4: herbicidal effect by soil treatment (Table 19, symbol L)). Conditions: amount of applied herbicide 320 g/ha.
Assay type: in vivo, windgrass (Apera spica-venti)
Summary of the method: as §2
COc1ccc(-c2sc3ccc(F)cc3c2-c2c(O)c(C)nn(C)c2=O)c(F)c1 [2-364] was tested, and the “herbicidal effect, L: windgrass” value was 0 (Herbicidal rate of 5% or less (almost no effect)).
In the case of CCCC(=O)Oc1c(C)nn(C)c(=O)c1-c1c(-c2ccc(OC)cc2F)sc2ccc(F)cc12 [2-365], the “herbicidal effect, L: windgrass” value is reported as 0 (Herbicidal rate of 5% or less (almost no effect)).

The compounds below were run on velvetleaf (assay: Test Example 4: herbicidal effect by soil treatment (Table 19, symbol M)). Conditions: amount of applied herbicide 320 g/ha.
Assay type: in vivo, velvetleaf (Abutilon theophrasti)
Summary of the method: as §2
For COc1ccc(-c2sc3ccc(F)cc3c2-c2c(O)c(C)nn(C)c2=O)c(F)c1 [2-364], the “herbicidal effect, M: velvetleaf” value was 0 (Herbicidal rate of 5% or less (almost no effect)).
For CCCC(=O)Oc1c(C)nn(C)c(=O)c1-c1c(-c2ccc(OC)cc2F)sc2ccc(F)cc12 [2-365], the “herbicidal effect, M: velvetleaf” value was 0 (Herbicidal rate of 5% or less (almost no effect)).

These compounds were tested on redroot pigweed (assay: Test Example 4: herbicidal effect by soil treatment (Table 19, symbol N)). Conditions: amount of applied herbicide 320 g/ha.
Assay type: in vivo, redroot pigweed (Amaranthus retroflexus)
Summary of the method: as §2
With COc1ccc(-c2sc3ccc(F)cc3c2-c2c(O)c(C)nn(C)c2=O)c(F)c1 [2-364] the “herbicidal effect, N: redroot pigweed” value was 1 (Herbicidal rate of 5% or more and less than 20%).
CCCC(=O)Oc1c(C)nn(C)c(=O)c1-c1c(-c2ccc(OC)cc2F)sc2ccc(F)cc12 [2-365] was tested, and the “herbicidal effect, N: redroot pigweed” value was 3 (Herbicidal rate of 40% or more and less than 70%).

What follows are compounds tested on lambsquarters (assay: Test Example 4: herbicidal effect by soil treatment (Table 19, symbol O)). Conditions: amount of applied herbicide 320 g/ha.
Assay type: in vivo, lambsquarters (Chenopodium album)
Summary of the method: as §2
With COc1ccc(-c2sc3ccc(F)cc3c2-c2c(O)c(C)nn(C)c2=O)c(F)c1 [2-364] the “herbicidal effect, O: lambsquarters” value was 4 (Herbicidal rate of 70% or more and less than 90%).
In the case of CCCC(=O)Oc1c(C)nn(C)c(=O)c1-c1c(-c2ccc(OC)cc2F)sc2ccc(F)cc12 [2-365], the “herbicidal effect, O: lambsquarters” value is reported as 1 (Herbicidal rate of 5% or more and less than 20%).

What follows are compounds tested on chickweed (assay: Test Example 4: herbicidal effect by soil treatment (Table 19, symbol P)). Conditions: amount of applied herbicide 320 g/ha.
Assay type: in vivo, common chickweed (Stellaria media)
Summary of the method: as §2
In the case of COc1ccc(-c2sc3ccc(F)cc3c2-c2c(O)c(C)nn(C)c2=O)c(F)c1 [2-364], the “herbicidal effect, P: chickweed” value is reported as 0 (Herbicidal rate of 5% or less (almost no effect)).
CCCC(=O)Oc1c(C)nn(C)c(=O)c1-c1c(-c2ccc(OC)cc2F)sc2ccc(F)cc12 [2-365] was tested, and the “herbicidal effect, P: chickweed” value was 0 (Herbicidal rate of 5% or less (almost no effect)).

Each compound was assayed on persian speedwell (assay: Test Example 4: herbicidal effect by soil treatment (Table 19, symbol R)). Conditions: amount of applied herbicide 320 g/ha.
Assay type: in vivo, Persian speedwell (Veronica persica)
Summary of the method: as §2
COc1ccc(-c2sc3ccc(F)cc3c2-c2c(O)c(C)nn(C)c2=O)c(F)c1 [2-364] was tested, and the “herbicidal effect, R: persian speedwell” value was 0 (Herbicidal rate of 5% or less (almost no effect)).
For CCCC(=O)Oc1c(C)nn(C)c(=O)c1-c1c(-c2ccc(OC)cc2F)sc2ccc(F)cc12 [2-365], the “herbicidal effect, R: persian speedwell” value was 0 (Herbicidal rate of 5% or less (almost no effect)).

— US20230085307A1, “PYRIDAZINONE COMPOUND AND HERBICIDE” (NISSAN CHEMICAL CORPORATION, priority 2019, published 2023)
